Assays:
Assay type in all cases: in vivo
[1] = tested on: Matricaria; test: Post-emergence test/greenhouse; details: rated after three weeks vs untreated control
Procedure: (§1) To produce a suitable preparation of active compound, 1 part by weight of active compound is mixed with the stated amount of solvent, the stated amount of emulsifier is added and the concentrate is diluted with water to the desired concentration.
(§2) Test plants which have a height of 5-15 cm are sprayed with the preparation of the active compound in such a way as to apply the particular amounts of active compound desired per unit area. The concentration of the spray liquor is chosen so that the amounts of active compound desired in each case are applied in 1000 l of water/ha.
(§3) After three weeks, the degree of damage to the plants is rated in % damage in comparison with the development of the untreated control.
(§4) The figures denote: • 0%=no effect (like untreated control) • 100%=total destruction

[2] = tested on: Abutilon; test: Post-emergence test/greenhouse; details: rated after three weeks vs untreated control
Procedure: as §1, §2, §3, §4

[3] = tested on: Echinochloa; test: Post-emergence test/greenhouse; details: rated after three weeks vs untreated control
Procedure: as §1, §2, §3, §4

[4] = tested on: Alopecurus; test: Post-emergence test/greenhouse; details: rated after three weeks vs untreated control
Procedure: as §1, §2, §3, §4

[5] = tested on: weeds; test: Post-emergence test/greenhouse
Procedure: as §1, §2, §3, §4

[6] = tested on: weeds; test: Pre-emergence test (overall statement); details: application rates between 30 g and 125 g of a.i. per hectare
Procedure: as §1
(§5) Seeds of the test plants are sown in normal soil. After about 24 hours, the soil is sprayed with the preparation of the active compound. Advantageously, the amount of water per unit area is kept constant. The active compound concentration in the preparation is not important, only the active compound application rate per unit area is critical.
as §3, §4

[7] = tested on: Lolium; test: Pre-emergence test/greenhouse; details: after three weeks
Procedure: as §1, §5, §3, §4

[8] = tested on: Stellaria; test: Pre-emergence test/greenhouse; details: after three weeks
Procedure: as §1, §5, §3, §4

[9] = tested on: Amaranthus; test: Pre-emergence test/greenhouse; details: after three weeks
Procedure: as §1, §5, §3, §4

[10] = tested on: Sorghum; test: Pre-emergence test/greenhouse; details: after three weeks
Procedure: as §1, §5, §3, §4

[11] = tested on: Chenopodium; test: Pre-emergence test/greenhouse; details: after three weeks
Procedure: as §1, §5, §3, §4

[12] = tested on: Alopecurus; test: Pre-emergence test/greenhouse; details: after three weeks
Procedure: as §1, §5, §3, §4

[13] = application rate 30 g of ai./ha
[14] = application rate 60 g of ai./ha
[15] = application rate 125 g of ai./ha

CCOc1cccc(C(F)(F)F)c1S(=O)(=O)NC(=O)Nc1nc(C)nc(OC)n1 [Example 4]
degree of damage to the plants, Matricaria [1, 13]: 100% | degree of damage to the plants, Abutilon [2, 13]: 100% | degree of damage to the plants, Echinochloa [3, 13]: 90% | degree of damage to the plants, Alopecurus [4, 13]: 90% | activity against weeds [5]: very strong activity against weeds | activity against weeds [6]: very strong activity against weeds | Lolium, % damage ([7]; 60 g of ai./ha): 100% | Steltaria, % damage ([8]; 60 g of ai./ha): 95% | Amaranthus, % damage ([9]; 60 g of ai./ha): 100% | Sorghum, % damage ([10]; 60 g of ai./ha): 100% | Chenopodium, % damage ([11]; 60 g of ai./ha): 100% | Alopecurus, % damage ([12]; 60 g of ai./ha): 100%

COc1nc(C)nc(NC(=O)NS(=O)(=O)c2c(OC)cccc2C(F)(F)F)n1 [Example 5]
degree of damage to the plants, Matricaria [1, 13]: 100% | degree of damage to the plants, Abutilon [2, 13]: 100% | degree of damage to the plants, Echinochloa [3, 13]: 100% | degree of damage to the plants, Alopecurus [4, 13]: 80% | activity against weeds [5]: very strong activity against weeds | activity against weeds [6]: very strong activity against weeds | Lolium, % damage ([7]; 60 g of ai./ha): 100% | Steltaria, % damage ([8]; 60 g of ai./ha): 100% | Amaranthus, % damage ([9]; 60 g of ai./ha): 100% | Sorghum, % damage ([10]; 60 g of ai./ha): 100% | Chenopodium, % damage ([11]; 60 g of ai./ha): 100% | Alopecurus, % damage ([12]; 60 g of ai./ha): 100%

COc1nc(NC(=O)NS(=O)(=O)c2c(OC)cccc2C(F)(F)F)nc(OC)n1 [Example 6]
degree of damage to the plants, Matricaria [1, 13]: 100% | degree of damage to the plants, Abutilon [2, 13]: 90% | degree of damage to the plants, Echinochloa [3, 13]: 100% | degree of damage to the plants, Alopecurus [4, 13]: 60% | activity against weeds [5]: very strong activity against weeds | activity against weeds [6]: very strong activity against weeds | Lolium, % damage ([7]; 60 g of ai./ha): 100% | Steltaria, % damage ([8]; 60 g of ai./ha): 100% | Amaranthus, % damage ([9]; 60 g of ai./ha): 100% | Sorghum, % damage ([10]; 60 g of ai./ha): 100% | Chenopodium, % damage ([11]; 60 g of ai./ha): 100% | Alopecurus, % damage ([12]; 60 g of ai./ha): 100%

CCOc1cccc(C(F)(F)F)c1S(=O)(=O)NC(=O)Nc1nc(OC)nc(OC)n1 [Example 7]
degree of damage to the plants, Matricaria [1, 13]: 100% | degree of damage to the plants, Abutilon [2, 13]: 95% | degree of damage to the plants, Echinochloa [3, 13]: 95% | degree of damage to the plants, Alopecurus [4, 13]: 95% | activity against weeds [5]: very strong activity against weeds | activity against weeds [6]: very strong activity against weeds | Lolium, % damage ([7]; 60 g of ai./ha): 95% | Steltaria, % damage ([8]; 60 g of ai./ha): 95% | Amaranthus, % damage ([9]; 60 g of ai./ha): 95% | Sorghum, % damage ([10]; 60 g of ai./ha): 100% | Chenopodium, % damage ([11]; 60 g of ai./ha): 100% | Alopecurus, % damage ([12]; 60 g of ai./ha): 100%

CCCOc1cccc(C(F)(F)F)c1S(=O)(=O)NC(=O)Nc1nc(C)nc(OC)n1 [Example 9]
degree of damage to the plants, Matricaria ([1]; application rate 8 g of ai./ha): 95% | degree of damage to the plants, Abutilon ([2]; application rate 8 g of ai./ha): 100% | degree of damage to the plants, Echinochloa ([3]; application rate 8 g of ai./ha): 80% | degree of damage to the plants, Alopecurus ([4]; application rate 8 g of ai./ha): 90% | activity against weeds [5]: very strong activity against weeds | activity against weeds [6]: very strong activity against weeds | Lolium, % damage ([7]; 30 g of ai./ha): 100% | Steltaria, % damage ([8]; 30 g of ai./ha): 100% | Amaranthus, % damage ([9]; 30 g of ai./ha): 100% | Sorghum, % damage ([10]; 30 g of ai./ha): 90% | Chenopodium, % damage ([11]; 30 g of ai./ha): 100% | Alopecurus, % damage ([12]; 30 g of ai./ha): 100%

COc1nc(C)nc(NC(=O)NS(=O)(=O)c2c(OC(C)C)cccc2C(F)(F)F)n1 [Example 12]
degree of damage to the plants, Matricaria [1, 13]: 100% | degree of damage to the plants, Abutilon [2, 13]: 95% | degree of damage to the plants, Echinochloa [3, 13]: 90% | degree of damage to the plants, Alopecurus [4, 13]: 95% | activity against weeds [5]: very strong activity against weeds | activity against weeds [6]: very strong activity against weeds | Lolium, % damage ([7]; 30 g of ai./ha): 100% | Steltaria, % damage ([8]; 30 g of ai./ha): 100% | Amaranthus, % damage ([9]; 30 g of ai./ha): 100% | Sorghum, % damage ([10]; 30 g of ai./ha): 100% | Chenopodium, % damage ([11]; 30 g of ai./ha): 95% | Alopecurus, % damage ([12]; 30 g of ai./ha): 100%

COc1cc(Cl)nc(NC(=O)NS(=O)(=O)c2c(OC)cccc2C(F)(F)F)n1 [Example 15]
degree of damage to the plants, Matricaria [1, 14]: 100% | degree of damage to the plants, Abutilon [2, 14]: 95% | degree of damage to the plants, Echinochloa [3, 14]: 90% | degree of damage to the plants, Alopecurus [4, 14]: 70% | activity against weeds [5]: very strong activity against weeds | activity against weeds [6]: very strong activity against weeds | Lolium, % damage ([7]; 60 g of ai./ha): 95% | Steltaria, % damage ([8]; 60 g of ai./ha): 95% | Amaranthus, % damage ([9]; 60 g of ai./ha): 95% | Sorghum, % damage ([10]; 60 g of ai./ha): 95% | Chenopodium, % damage ([11]; 60 g of ai./ha): 100% | Alopecurus, % damage ([12]; 60 g of ai./ha): 100%

COc1cc(OC)nc(NC(=O)NS(=O)(=O)c2c(OC)cccc2C(F)(F)F)n1 [Example 22]
degree of damage to the plants, Matricaria [1, 13]: 95% | degree of damage to the plants, Abutilon [2, 13]: 95% | degree of damage to the plants, Echinochloa [3, 13]: 80% | degree of damage to the plants, Alopecurus [4, 13]: 60% | activity against weeds [5]: very strong activity against weeds | activity against weeds [6]: very strong activity against weeds | Steltaria, % damage ([8]; 30 g of ai./ha): 100% | Amaranthus, % damage ([9]; 30 g of ai./ha): 100% | Sorghum, % damage ([10]; 30 g of ai./ha): 95% | Chenopodium, % damage ([11]; 30 g of ai./ha): 100% | Alopecurus, % damage ([12]; 30 g of ai./ha): 100%

CCOc1cccc(C)c1S(=O)(=O)NC(=O)Nc1nc(C)cc(OC)n1 [Example 27]
degree of damage to the plants, Matricaria [1, 14]: 90% | degree of damage to the plants, Abutilon [2, 14]: 100% | degree of damage to the plants, Echinochloa [3, 14]: 95% | degree of damage to the plants, Alopecurus [4, 14]: 95% | activity against weeds [5]: very strong activity against weeds | activity against weeds [6]: very strong activity against weeds | Lolium, % damage ([7]; 60 g of ai./ha): 100% | Steltaria, % damage ([8]; 60 g of ai./ha): 100% | Amaranthus, % damage ([9]; 60 g of ai./ha): 100% | Sorghum, % damage ([10]; 60 g of ai./ha): 100% | Chenopodium, % damage ([11]; 60 g of ai./ha): 100% | Alopecurus, % damage ([12]; 60 g of ai./ha): 100%

CCOc1cccc(C)c1S(=O)(=O)NC(=O)Nc1nc(OC)nc(OC)n1 [Example 31]
degree of damage to the plants, Matricaria [1, 14]: 100% | degree of damage to the plants, Abutilon [2, 14]: 100% | degree of damage to the plants, Echinochloa [3, 14]: 80% | degree of damage to the plants, Alopecurus [4, 14]: 80% | activity against weeds [5]: very strong activity against weeds | activity against weeds [6]: very strong activity against weeds | Lolium, % damage ([7]; 60 g of ai./ha): 100% | Steltaria, % damage ([8]; 60 g of ai./ha): 95% | Amaranthus, % damage ([9]; 60 g of ai./ha): 95% | Sorghum, % damage ([10]; 60 g of ai./ha): 90% | Chenopodium, % damage ([11]; 60 g of ai./ha): 100% | Alopecurus, % damage ([12]; 60 g of ai./ha): 95%

COc1cc(OC)nc(NC(=O)NS(=O)(=O)c2c(C)cccc2OC(F)F)n1 [Example 65]
degree of damage to the plants, Matricaria [1, 15]: 100% | degree of damage to the plants, Abutilon [2, 15]: 100% | degree of damage to the plants, Echinochloa [3, 15]: 90% | degree of damage to the plants, Alopecurus [4, 15]: 90% | activity against weeds [5]: very strong activity against weeds | activity against weeds [6]: very strong activity against weeds | Lolium, % damage ([7]; 125 g of ai./ha): 70% | Steltaria, % damage ([8]; 125 g of ai./ha): 95% | Amaranthus, % damage ([9]; 125 g of ai./ha): 95% | Chenopodium, % damage ([11]; 125 g of ai./ha): 95% | Alopecurus, % damage ([12]; 125 g of ai./ha): 95%

From patent US6838414B2, “Substituted aryl sulphonyl(thio)ureas used as herbicides” (Bayer Aktiengesellschaft, priority 1996, dated 2005)
